Assay: Stability (integrity) testing of amorphous and polymorphic form under storage conditions, RP-HPLC
Type: physicochemical
Set-up: key to Impurity RRT 0.738 / Impurity RRT 0.949 / Impurity RRT 1.050 / Impurity RRT 1.550 / Impurity RRT 0.136 / Impurity RRT 0.720 / Impurity RRT 0.706 / Impurity RRT 1.18 / Impurity RRT 1.826: % of total UV absorption (HPLC peak area); Impurity RRT 1.104 / Impurity RRT 1.698: unit not given beside the values
Settings: Batch 3 PP00205
Method: The integrity of the different forms of the (3R, 5R)-7-[2-(4-fluorophenyl)-5-isopropyl-3-phenyl-4-[(4-hydroxymethylphenylamino)carbonyl]-pyrrol-1-yl]-3,5-dihydroxy-heptanoic acid, hemi calcium salt, was tested under different atmospheric conditions to determine the stability of the amorphous and polymorphic form of the drug in various storage environments. Reversed Phase-HPLC (RP-HPLC) was used to separate (3R, 5R)-7-[2-(4-fluorophenyl)-5-isopropyl-3-phenyl-4-[(4-hydroxymethylphenylamino)carbonyl]-pyrrol-1-yl]-3,5-dihydroxy-heptanoic acid, hemi calcium salt, from smaller molecules representing breakdown products as well as oxidized drug. The relative amount of the drug was reported as a percent of total absorption by UV. The total peak area of all UV absorption impurities was used to define total impurity of the drug. Impurities are defined by their relative retention time (RRT) compared to native drug. Samples were injected onto a C18 column using standard temperature, gradient and run-time conditions.
The results of this integrity testing for the amorphous form of (3R, 5R)-7-[2-(4-fluorophenyl)-5-isopropyl-3-phenyl-4-[(4-hydroxymethylphenylamino)carbonyl]-pyrrol-1-yl]-3,5-dihydroxy-heptanoic acid, hemi calcium salt, is shown in Table 5.
Three separate batches of polymorphic Form I of (3R, 5R)-7-[2-(4-fluorophenyl)-5-isopropyl-3-phenyl-4-[(4-hydroxymethylphenylamino)carbonyl]-pyrrol-1-yl]-3,5-dihydroxy-heptanoic acid, hemi calcium salt, were prepared and tested under the same atmospheric conditions described for the amorphous form.

CC(C)c1c(C(=O)Nc2ccc(CO)cc2)c(-c2ccccc2)c(-c2ccc(F)cc2)n1CC[C@@H](O)C[C@@H](O)CC(=O)[O-].CC(C)c1c(C(=O)Nc2ccc(CO)cc2)c(-c2ccccc2)c(-c2ccc(F)cc2)n1CC[C@@H](O)C[C@@H](O)CC(=O)[O-].[Ca+2] [Form I, (3R,5)-7-[2-(4-fluorophenyl)-5-isopropyl-3-phenyl-4-[(4-hydroxymethylphenylamino)carbonyl]-pyrrol-1-yl]-3,5-dihydroxy-heptanoic acid, hemi calcium salt]
Impurity RRT 1.045 (25° C./60% RH 12M): 0.344
Impurity RRT 1.095 (25° C./60% RH 12M): 0.165
Impurity RRT 1.449 (25° C./60% RH 12M): 0.195
Impurity RRT 1.596 (25° C./60% RH 12M): 0.086
Impurity RRT 1.640 (25° C./60% RH 12M): 0.052
Impurity RRT 1.698 (25° C./60% RH 12M): 0.061
Total Impurity (25° C./60% RH 12M): 1.506
Water (25° C./60% RH 12M): 5.57 % W/W
Assay (30° C./65% RH 1M): 98.21 % W/W
Description (30° C./65% RH 1M): White
Highest Impurity (30° C./65% RH 1M): 0.449
Impurity RRT 0.935 (30° C./65% RH 1M): 0.449
Impurity RRT 1.045 (30° C./65% RH 1M): 0.385
Impurity RRT 1.095 (30° C./65% RH 1M): 0.162
Impurity RRT 1.44 (30° C./65% RH 1M): 0.234
Impurity RRT 1.590 (30° C./65% RH 1M): 0.102
Impurity RRT 1.640 (30° C./65% RH 1M): 0.071
Impurity RRT 1.698 (30° C./65% RH 1M): 0.072
Total Impurity (30° C./65% RH 1M): 1.495
Water (30° C./65% RH 1M): 4.47 % W/W
Assay (30° C./65% RH 2M): 98.27 % W/W
Description (30° C./65% RH 2M): White
Highest Impurity (30° C./65% RH 2M): 0.416
Impurity RRT 0.935 (30° C./65% RH 2M): 0.416
Impurity RRT 1.045 (30° C./65% RH 2M): 0.362
Impurity RRT 1.095 (30° C./65% RH 2M): 0.163
Impurity RRT 1.18 (30° C./65% RH 2M): 0.048
Impurity RRT 1.44 (30° C./65% RH 2M): 0.216
Impurity RRT 1.590 (30° C./65% RH 2M): 0.100
Impurity RRT 1.640 (30° C./65% RH 2M): 0.063
Impurity RRT 1.698 (30° C./65% RH 2M): 0.062
Total Impurity (30° C./65% RH 2M): 1.43
Water (30° C./65% RH 2M): 4.59 % W/W
Assay (30° C./65% RH 3M): 98.21 % W/W
Description (30° C./65% RH 3M): White
Highest Impurity (30° C./65% RH 3M): 0.432
Impurity RRT 0.935 (30° C./65% RH 3M): 0.432
Impurity RRT 1.045 (30° C./65% RH 3M): 0.37
Impurity RRT 1.095 (30° C./65% RH 3M): 0.168
Impurity RRT 1.44 (30° C./65% RH 3M): 0.228
Impurity RRT 1.590 (30° C./65% RH 3M): 0.096
Impurity RRT 1.640 (30° C./65% RH 3M): 0.057
Impurity RRT 1.698 (30° C./65% RH 3M): 0.064
Total Impurity (30° C./65% RH 3M): 1.43
Water (30° C./65% RH 3M): 4.82 % W/W
Assay (30° C./65% RH 6M): 98.06 % W/W
Description (30° C./65% RH 6M): White
Highest Impurity (30° C./65% RH 6M): 0.418
Impurity RRT 0.935 (30° C./65% RH 6M): 0.418
Impurity RRT 1.045 (30° C./65% RH 6M): 0.352
Impurity RRT 1.095 (30° C./65% RH 6M): 0.134
Impurity RRT 1.449 (30° C./65% RH 6M): 0.224
Impurity RRT 1.596 (30° C./65% RH 6M): 0.095
Impurity RRT 1.640 (30° C./65% RH 6M): 0.077
Impurity RRT 1.698 (30° C./65% RH 6M): 0.052
Total Impurity (30° C./65% RH 6M): 1.352
Water (30° C./65% RH 6M): 4.87 % W/W
Assay (30° C./65% RH 9M): 97.89 % W/W
Description (30° C./65% RH 9M): White
Highest Impurity (30° C./65% RH 9M): 0.407
Impurity RRT 0.935 (30° C./65% RH 9M): 0.407
Impurity RRT 1.045 (30° C./65% RH 9M): 0.340
Impurity RRT 1.095 (30° C./65% RH 9M): 0.150
Impurity RRT 1.449 (30° C./65% RH 9M): 0.216
Impurity RRT 1.596 (30° C./65% RH 9M): 0.103
Impurity RRT 1.640 (30° C./65% RH 9M): 0.064
Impurity RRT 1.698 (30° C./65% RH 9M): 0.053
Total Impurity (30° C./65% RH 9M): 1.333
Water (30° C./65% RH 9M): 4.91 % W/W
Assay (30° C./65% RH 12M): 97.80 % W/W
Description (30° C./65% RH 12M): White
Highest Impurity (30° C./65% RH 12M): 0.424
Impurity RRT 0.935 (30° C./65% RH 12M): 0.424
Impurity RRT 1.045 (30° C./65% RH 12M): 0.363
Impurity RRT 1.095 (30° C./65% RH 12M): 0.172
Impurity RRT 1.449 (30° C./65% RH 12M): 0.197
Impurity RRT 1.596 (30° C./65% RH 12M): 0.089
Impurity RRT 1.640 (30° C./65% RH 12M): 0.064
Impurity RRT 1.698 (30° C./65% RH 12M): 0.058
Total Impurity (30° C./65% RH 12M): 1.367
Water (30° C./65% RH 12M): 5.33 % W/W
Assay (40° C./75% RH 1M): 98.23 % W/W
Description (40° C./75% RH 1M): White
Highest Impurity (40° C./75% RH 1M): 0.452
Impurity RRT 0.935 (40° C./75% RH 1M): 0.452
Impurity RRT 1.045 (40° C./75% RH 1M): 0.372
Impurity RRT 1.095 (40° C./75% RH 1M): 0.162
Impurity RRT 1.44 (40° C./75% RH 1M): 0.215
Impurity RRT 1.590 (40° C./75% RH 1M): 0.100
Impurity RRT 1.640 (40° C./75% RH 1M): 0.071
Impurity RRT 1.698 (40° C./75% RH 1M): 0.066
Total Impurity (40° C./75% RH 1M): 1.46
Water (40° C./75% RH 1M): 4.33 % W/W
Assay (40° C./75% RH 2M): 98.23 % W/W
Description (40° C./75% RH 2M): White
Highest Impurity (40° C./75% RH 2M): 0.422
Impurity RRT 0.935 (40° C./75% RH 2M): 0.422
Impurity RRT 1.045 (40° C./75% RH 2M): 0.351
Impurity RRT 1.095 (40° C./75% RH 2M): 0.169
Impurity RRT 1.18 (40° C./75% RH 2M): 0.052
Impurity RRT 1.44 (40° C./75% RH 2M): 0.219
Impurity RRT 1.590 (40° C./75% RH 2M): 0.090
Impurity RRT 1.640 (40° C./75% RH 2M): 0.066
Impurity RRT 1.698 (40° C./75% RH 2M): 0.065
Total Impurity (40° C./75% RH 2M): 1.44
Water (40° C./75% RH 2M): 4.40 % W/W
Assay (40° C./75% RH 3M): 98.2 % W/W
Description (40° C./75% RH 3M): White
Highest Impurity (40° C./75% RH 3M): 0.423
Impurity RRT 0.935 (40° C./75% RH 3M): 0.423
Impurity RRT 1.045 (40° C./75% RH 3M): 0.360
Impurity RRT 1.095 (40° C./75% RH 3M): 0.174
Impurity RRT 1.44 (40° C./75% RH 3M): 0.218
Impurity RRT 1.590 (40° C./75% RH 3M): 0.102
Impurity RRT 1.640 (40° C./75% RH 3M): 0.065
Impurity RRT 1.698 (40° C./75% RH 3M): 0.064
Total Impurity (40° C./75% RH 3M): 1.41
Water (40° C./75% RH 3M): 4.75 % W/W
Assay (40° C./75% RH 6M): 98.16 % W/W
Description (40° C./75% RH 6M): White
Highest Impurity (40° C./75% RH 6M): 0.418
Impurity RRT 0.138 (40° C./75% RH 6M): 0.107
Impurity RRT 0.935 (40° C./75% RH 6M): 0.418
Impurity RRT 1.045 (40° C./75% RH 6M): 0.347
Impurity RRT 1.095 (40° C./75% RH 6M): 0.161
Impurity RRT 1.449 (40° C./75% RH 6M): 0.187
Impurity RRT 1.596 (40° C./75% RH 6M): 0.087
Impurity RRT 1.640 (40° C./75% RH 6M): 0.050
Impurity RRT 1.698 (40° C./75% RH 6M): 0.052
Total Impurity (40° C./75% RH 6M): 1.409
Water (40° C./75% RH 6M): 5.44 % W/W
Assay (Initial): 98.43 % W/W
Description (Initial): White
Highest Impurity (Initial): 0.428
Impurity RRT 0.706 (Initial): 0.045
Impurity RRT 0.935 (Initial): 0.428
Impurity RRT 1.045 (Initial): 0.349
Impurity RRT 1.095 (Initial): 0.159
Impurity RRT 1.44 (Initial): 0.235
Impurity RRT 1.590 (Initial): 0.093
Impurity RRT 1.640 (Initial): 0.054
Impurity RRT 1.698 (Initial): 0.084
Total Impurity (Initial): 1.438
Water (Initial): 4.76 % W/W
